Reference: the supplement of paper PMC10307832

Assays:
Assay in all cases: relative viability (nuclei count vs DMSO), 5 days (fraction); higher = more cells survive
XMD8-85 + Dasatinib = compound: CN1CCN(CC1)C2=CC(=C(C=C2)NC3=NC=C4C(=N3)N(C5=CC=CC=C5C(=O)N4C)C)OC [XMD8-85] + Cc1nc(Nc2ncc(C(=O)Nc3c(C)cccc3Cl)s2)cc(N2CCN(CCO)CC2)n1 [Dasatinib] (partner 0.075 µM)
How it was run: (§1)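 Lung cancer cell lines were seeded in 1536-well plates and dosed by pin tool the next day, with either a single drug or a fixed anchor-drug dose combined with five library-drug doses (not always all listed) spaced in √10 steps. Five days later, one step fixed the cells and stained their nuclei (final 0.05% Triton X-100, 1% formaldehyde, 1 ug/ml Hoechst), and nuclei were counted on 4× images. Relative viability is the nuclei count in treated wells divided by the count in vehicle wells, and each value is the median of duplicate plates.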

4EGI-1 + Foretinib = compound: O=C(O)C(Cc1ccccc1[N+](=O)[O-])=NNc1nc(-c2ccc(Cl)c(Cl)c2)cs1 (mixture of isomers) [4EGI-1] + COc1cc2c(Oc3ccc(NC(=O)C4(C(=O)Nc5ccc(F)cc5)CC4)cc3F)ccnc2cc1OCCCN1CCOCC1 [Foretinib] (partner 0.25 µM)
How it was run: as §1

4EGI-1 + Phenformin = compound: O=C(O)C(Cc1ccccc1[N+](=O)[O-])=NNc1nc(-c2ccc(Cl)c(Cl)c2)cs1 (mixture of isomers) [4EGI-1] + N=C(N)NC(=N)NCCc1ccccc1 [Phenformin] (partner 250 µM)
How it was run: as §1

XMD8-85 + Alpelisib = compound: CN1CCN(CC1)C2=CC(=C(C=C2)NC3=NC=C4C(=N3)N(C5=CC=CC=C5C(=O)N4C)C)OC [XMD8-85] + Cc1nc(NC(=O)N2CCC[C@H]2C(N)=O)sc1-c1ccnc(C(C)(C)C(F)(F)F)c1 [Alpelisib] (partner 2 µM)
How it was run: as §1

Cell Line	relative viability (XMD8-85 + Dasatinib; first compound 0.08 µM)	relative viability (XMD8-85 + Dasatinib; first compound 0.253 µM)	relative viability (XMD8-85 + Dasatinib; first compound 0.8 µM)	relative viability (XMD8-85 + Dasatinib; first compound 2.53 µM)	relative viability (XMD8-85 + Dasatinib; first compound 8 µM)	relative viability (4EGI-1 + Foretinib; first compound 0.5 µM)	relative viability (4EGI-1 + Foretinib; first compound 1.581 µM)	relative viability (4EGI-1 + Foretinib; first compound 5 µM)	relative viability (4EGI-1 + Foretinib; first compound 50 µM)	relative viability (4EGI-1 + Phenformin; first compound 0.5 µM)	relative viability (4EGI-1 + Phenformin; first compound 5 µM)	relative viability (4EGI-1 + Phenformin; first compound 15.81 µM)	relative viability (4EGI-1 + Phenformin; first compound 50 µM)	relative viability (XMD8-85 + Alpelisib; first compound 0.08 µM)	relative viability (XMD8-85 + Alpelisib; first compound 0.253 µM)	relative viability (XMD8-85 + Alpelisib; first compound 0.8 µM)	relative viability (XMD8-85 + Alpelisib; first compound 2.53 µM)	relative viability (XMD8-85 + Alpelisib; first compound 8 µM)	relative viability (4EGI-1 + Foretinib; first compound 15.81 µM)	relative viability (4EGI-1 + Phenformin; first compound 1.581 µM)
PC-14	0.229	0.271	0.275	0.249	0.115	1.01	0.799	1.09	0.879	0.614	0.792	0.188	0.232	0.784	0.882	0.762	0.993	0.655	–	–
NCI-H647	0.197	0.141	0.16	0.196	0.122	1.44	–	1.18	0.66	0.562	0.819	0.419	0.141	0.837	1.18	1.22	1.35	0.734	1.24	–
201T	–	0.641	0.55	0.616	0.529	1.2	0.861	1.18	0.63	0.456	0.427	0.45	0.428	0.966	1.05	1	1.08	0.901	0.985	0.475
PC-3 [JPC-3]	0.889	0.932	0.939	1.14	0.997	1.09	0.984	0.967	0.463	0.484	0.476	–	0.431	1.02	1.05	1.06	1.01	1.01	–	0.486
HCC-827	0.403	0.33	0.34	0.439	0.457	1.07	0.889	1.05	0.339	0.403	0.396	–	0.353	0.946	1.06	0.939	1.08	0.996	–	0.394
NCI-H1395	0.438	0.414	0.42	0.428	0.309	1.15	0.86	1.04	0.589	0.455	0.508	0.399	0.34	0.927	0.907	0.933	0.965	1.08	0.986	0.362
EPLC-272H	0.33	0.253	0.4	0.501	0.25	0.721	–	0.735	0.132	0.348	0.302	0.273	0.158	–	0.916	0.93	1.01	0.624	1.26	–
NCI-H2087	0.953	0.802	0.959	0.79	0.472	1.23	1.09	1.39	0.29	0.498	0.435	0.394	0.193	1.18	1.05	1.21	1.35	0.808	0.855	0.468
